SMILES strings stand for the structures.

Chain of recombinant human AMCase (Q9BZP6 22-476): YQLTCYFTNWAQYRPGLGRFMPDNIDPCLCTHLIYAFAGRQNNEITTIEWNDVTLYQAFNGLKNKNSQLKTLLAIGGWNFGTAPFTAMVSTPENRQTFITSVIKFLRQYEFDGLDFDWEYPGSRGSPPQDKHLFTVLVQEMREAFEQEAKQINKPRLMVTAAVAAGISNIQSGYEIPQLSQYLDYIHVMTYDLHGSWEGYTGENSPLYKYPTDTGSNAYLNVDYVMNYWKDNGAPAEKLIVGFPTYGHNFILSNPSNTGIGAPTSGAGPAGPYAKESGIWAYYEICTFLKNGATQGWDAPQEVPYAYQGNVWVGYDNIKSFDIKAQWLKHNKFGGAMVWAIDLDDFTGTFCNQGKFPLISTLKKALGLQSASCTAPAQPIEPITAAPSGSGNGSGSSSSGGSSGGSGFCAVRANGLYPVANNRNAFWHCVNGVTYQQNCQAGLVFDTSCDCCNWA

The assay addresses recombinant human AMCase (Homo sapiens, UniProt Q9BZP6). As to the kind of experiment: Human AMCase Activity Assay. The assay is classed as biochemical. Conditions: recombinant hAMCase, 4-methylumbelliferyl chitobioside substrate, citrate buffer pH 5.2, 37° C., 60 minutes; read-out: Activity (IC50 value key). On the procedure: Human AMCase Activity Assay
The assay was run in the 96-well plate format, each reaction in the total volume of 100 μl. 4-Methylumbelliferyl B-D-N,N′ diacetylchitobioside hydrate was used as a substrate for the enzyme. Upon hydrolysis by AMCase, the substrate releases 4-methylumbelliferyl (4MU), when ionized in basic pH, emits fluorescence of 460 nm.
Briefly, 40 μl of a substrate was added to each well, followed by 10 μl of compound dilution and 50 μl of hAMCase recombinant enzyme solution. The reaction was carried out in citrate buffer, pH 5.2, in the dark, at 37° C. for 60 minutes with shaking.
The IC50 is the concentration at which inhibition is half-maximal. Regarding `Nc1n[nH]c(N2CCC(c3nc(-c4ccc5c(c4)OCO5)no3)CC2)n1` [Example 41, 5-(4-(3-(benzo[d][1,3]dioxol-5-yl)-1,2,4-oxadiazol-5-yl)piperidin-1-yl)-1H-1,2,4-triazol-3-amine], the IC50 was above 100 µM.

For `CS(=O)(=O)c1ccc(-c2noc(C3CCN(c4nc(N)n[nH]4)CC3)n2)cc1` [Example 42, 5-(4-(3-(4-(methylsulfonyl)phenyl)-1,2,4-oxadiazol-5-yl)piperidin-1-yl)-1H-1,2,4-triazol-3-amine], the IC50 is above 100 µM.

Regarding `Nc1n[nH]c(N2CCC(c3nnc(-c4ccc(F)cc4)o3)CC2)n1` [Example 43, 5-(4-(5-(4-fluorophenyl)-1,3,4-oxadiazol-2-yl)piperidin-1-yl)-1H-1,2,4-triazol-3-amine], the IC50 was above 100 µM.

Consider `CC(Oc1ccccc1F)C(=O)N1CCN(c2nc(N)n[nH]2)CC1` (centres unmarked) [Example 44, 1-(4-(3-amino-1H-1,2,4-triazol-5-yl)piperazin-1-yl)-2-(2-fluorophenoxy)propan-1-one], for which the IC50 was above 100 µM.

As to `Cc1ccc(OC(C)C(=O)N2CCN(c3nc(N)n[nH]3)CC2)c(Cl)c1` (centres unmarked) [Example 45, 1-(4-(3-amino-1H-1,2,4-triazol-5-yl)piperazin-1-yl)-2-(2-chloro-4-methylphenoxy)propan-1-one], the IC50 was above 100 µM.

For `Nc1n[nH]c(N2CCN(C(=O)OCc3ccccc3)CC2)n1` [Example 47, benzyl 4-(3-amino-1H-1,2,4-triazol-5-yl)piperazine-1-carboxylate], the IC50 was above 100 µM.

Regarding `Nc1n[nH]c(N2CCN(C(=O)c3cc4ccccc4o3)CC2)n1` [Example 48, (4-(3-amino-1H-1,2,4-triazol-5-yl)piperazin-1-yl)(benzofuran-2-yl)methanone], the IC50 is above 100 µM.

With `Nc1n[nH]c(N2CCC(C(=O)NCc3ccc(F)cc3)CC2)n1` [Example 49, 1-(3-amino-1H-1,2,4-triazol-5-yl)-N-(4-fluorobenzyl)piperidine-4-carboxamide], the concentration for half-maximal inhibition (IC50) is above 100 µM.

`Nc1n[nH]c(N2CCC(C(=O)NCc3ccc(F)cc3C(F)(F)F)CC2)n1` [Example 50, 1-(3-amino-1H-1,2,4-triazol-5-yl)-N-(4-fluoro-2-(trifluoromethyl)benzyl)piperidine-4-carboxamide]: the IC50 was above 100 µM.

On to `Nc1n[nH]c(N2CCC(C(=O)NCc3ccccc3F)CC2)n1` [Example 51, 1-(3-amino-1H-1,2,4-triazol-5-yl)-N-(2-fluorobenzyl)piperidine-4-carboxamide], for which the concentration for half-maximal inhibition (IC50) was above 100 µM.

On to `Nc1n[nH]c(N2CCC(C(=O)NCc3ccc(Cl)cc3)CC2)n1` [Example 52, 1-(3-amino-1H-1,2,4-triazol-5-yl)-N-(4-chlorobenzyl)piperidine-4-carboxamide], for which the IC50 is above 100 µM.

Turning to `Nc1n[nH]c(N2CCC(C(=O)NCc3ccccc3Br)CC2)n1` [Example 53, 1-(3-amino-1H-1,2,4-triazol-5-yl)-N-(2-bromobenzyl)piperidine-4-carboxamide], the IC50 is above 100 µM.

`Nc1n[nH]c(N2CCC(C(=O)NCc3ccc(F)c(C(F)(F)F)c3)CC2)n1` [Example 54, 1-(3-amino-1H-1,2,4-triazol-5-yl)-N-(4-fluoro-3-(trifluoromethyl)benzyl)piperidine-4-carboxamide]: the IC50 was above 100 µM.

As for `Nc1n[nH]c(N2CCC(NS(=O)(=O)Cc3cccc(F)c3)CC2)n1` [Example 56, N-(1-(3-amino-1H-1,2,4-triazol-5-yl)piperidin-4-yl)-1-(3-fluorophenyl)methanesulfonamide], the IC50 was in the range of 10 to 100 µM.

As to `Nc1n[nH]c(N2CCC(NS(=O)(=O)Cc3ccc(F)cc3)CC2)n1` [Example 57, N-(1-(3-amino-1H-1,2,4-triazol-5-yl)piperidin-4-yl)-1-(4-fluorophenyl)methanesulfonamide], the IC50 was 10 to 100 µM.

With `Nc1n[nH]c(N2CCC(NS(=O)(=O)Cc3cc(Cl)cc(Cl)c3)CC2)n1` [Example 58, N-(1-(3-amino-1H-1,2,4-triazol-5-yl)piperidin-4-yl)-1-(3,5-dichlorophenyl)methanesulfonamide], the IC50 lay within 1 to 10 µM.

As to `Nc1n[nH]c(N2CCC(NS(=O)(=O)Cc3cccc(Cl)c3)CC2)n1` [Example 59, N-(1-(3-amino-1H-1,2,4-triazol-5-yl)piperidin-4-yl)-1-(3-chlorophenyl)methanesulfonamide], the IC50 was 1 to 10 µM.

Consider `CCC(CN1CCN(c2nc(N)n[nH]2)CC1)Oc1ccc(Br)cc1` (centres unmarked) [Example 60, 5-(4-(2-(4-bromophenoxy)butyl)piperazin-1-yl)-1H-1,2,4-triazol-3-amine], for which the IC50 is 10 to 100 µM.

As to `C[C@H](CN1CCN(c2nc(N)n[nH]2)CC1)Oc1ccc(Br)cc1` [Example 61, (R)-5-(4-(2-(4-bromophenoxy)propyl)piperazin-1-yl)-1H-1,2,4-triazol-3-amine], the IC50 is 1 to 10 µM.

Take `C[C@@H](CN1CCN(c2nc(N)n[nH]2)CC1)Oc1ccc(Br)cc1` [Example 62, (S)-5-(4-(2-(4-bromophenoxy)propyl)piperazin-1-yl)-1H-1,2,4-triazol-3-amine]: the IC50 was in the range of 0.1 to 1 µM.

`CCC(CN1CCN(c2nc(N)n[nH]2)CC1)Oc1ccc(Cl)cc1` (centres unmarked) [Example 63, 5-(4-(2-(4-chlorophenoxy)butyl)piperazin-1-yl)-1H-1,2,4-triazol-3-amine]: the IC50 lay within 10 to 100 µM.

On to `C[C@H](CN1CCN(c2nc(N)n[nH]2)CC1)Oc1ccc(Cl)cc1` [Example 64, (R)-5-(4-(2-(4-chlorophenoxy)propyl)piperazin-1-yl)-1H-1,2,4-triazol-3-amine], for which the IC50 was 10 to 100 µM.

With `C[C@@H](CN1CCN(c2nc(N)n[nH]2)CC1)Oc1ccc(Cl)cc1` [Example 65, (S)-5-(4-(2-(4-chlorophenoxy)propyl)piperazin-1-yl)-1H-1,2,4-triazol-3-amine], the IC50 was 10 to 100 µM.

Take `Nc1n[nH]c(N2CCN(CCCc3ccc(Cl)cc3)C(CO)C2)n1` (centres unmarked) [Example 66, (4-(3-amino-1H-1,2,4-triazol-5-yl)-1-(3-(4-chlorophenyl)propyl)piperazin-2-yl)methanol]: the IC50 was in the range of 10 to 100 µM.

As to `Nc1n[nH]c(N2CCC(NC(=O)Nc3ccc(Cl)cc3)CC2)n1` [Example 67, 1-(1-(3-amino-1H-1,2,4-triazol-5-yl)piperidin-4-yl)-3-(4-chlorophenyl)urea], the IC50 is above 100 µM.

As to `Nc1n[nH]c(N2CCC(NC(=O)Nc3ccc(F)c(F)c3)CC2)n1` [Example 68, 1-(1-(3-amino-1H-1,2,4-triazol-5-yl)piperidin-4-yl)-3-(3,4-difluorophenyl)urea], the IC50 was above 100 µM.

For `Nc1n[nH]c(N2CCC(CNC(=O)c3cccc(Br)c3)CC2)n1` [Example 69, N-((1-(3-amino-1H-1,2,4-triazol-5-yl)piperidin-4-yl)methyl)-3-bromo benzamide], the IC50 was above 100 µM.

Consider `Nc1n[nH]c(N2CCC(CC(=O)Nc3ccc(Br)cc3)CC2)n1` [Example 70, 2-(1-(3-amino-1H-1,2,4-triazol-5-yl)piperidin-4-yl)-N-(4-bromophenyl)acetamide], for which the IC50 was above 100 µM.

In the case of `Nc1n[nH]c(N2CCC(NC(=O)C(O)c3ccc(Cl)cc3)CC2)n1` (centres unmarked) [Example 71, N-(1-(3-amino-1H-1,2,4-triazol-5-yl)piperidin-4-yl)-2-(4-chlorophenyl)-2-hydroxyacetamide], the IC50 was above 100 µM.

The record behind these values is patent US10214531B2 (Institute for Drug Discovery, LLC, priority 2013, dated 2019).
